# Source: patent US20250186416A1, “SMOKING CESSATION COMPOUNDS HAVING REDUCED NITROSAMINES AND ASSOCIATED METHODS” (Achieve Life Sciences, Inc., priority 2023, published 2025)
# Where two headings read alike, the source gives them in different places.
# How the values were obtained:
# [1] = cited from earlier work
Structure (SMILES),reported pH of ascorbic acid in water ([1]; 5 mg/ml),reported pH of ascorbic acid in water ([1]; 50 mg/ml),NNC equivalent in the standard tablet formulation (equivalent of 152 ppb in API),highest level of NNC observed in representative batches of drug substance (API) (storage about 10 months to about 8 years after manufacture) [ppb]
O=C1O[C@H]([C@@H](O)CO)C(O)=C1O [ascorbic acid],3,2,–,–
"O=c1cccc2n1C[C@@H]1CNC[C@H]2C1 [drug substance (API), cytisine]",–,–,approximately 0.46 ng/tablet,152
